Patent US20230167073A1 (Teijin Pharma Limited, priority 2020, published 2023)

target: T1, Human TRPC6 (Homo sapiens, UniProt Q9Y210); assay: Evaluation of TRPC6 channel inhibitory activity (1), FLIPR Calcium 5 Assay Kit, OAG stimulation (Compound Nos. 1-1293); type: cell-based; settings: Human TRPC6 stably-expressing cells, OAG 30 μM, FLIPR Calcium 5 Assay Kit; read-out: Inhibitory activity (pIC50 class) (converted)
T1 construct: expressed in transfected cells
T1 sequence (Q9Y210 1-931): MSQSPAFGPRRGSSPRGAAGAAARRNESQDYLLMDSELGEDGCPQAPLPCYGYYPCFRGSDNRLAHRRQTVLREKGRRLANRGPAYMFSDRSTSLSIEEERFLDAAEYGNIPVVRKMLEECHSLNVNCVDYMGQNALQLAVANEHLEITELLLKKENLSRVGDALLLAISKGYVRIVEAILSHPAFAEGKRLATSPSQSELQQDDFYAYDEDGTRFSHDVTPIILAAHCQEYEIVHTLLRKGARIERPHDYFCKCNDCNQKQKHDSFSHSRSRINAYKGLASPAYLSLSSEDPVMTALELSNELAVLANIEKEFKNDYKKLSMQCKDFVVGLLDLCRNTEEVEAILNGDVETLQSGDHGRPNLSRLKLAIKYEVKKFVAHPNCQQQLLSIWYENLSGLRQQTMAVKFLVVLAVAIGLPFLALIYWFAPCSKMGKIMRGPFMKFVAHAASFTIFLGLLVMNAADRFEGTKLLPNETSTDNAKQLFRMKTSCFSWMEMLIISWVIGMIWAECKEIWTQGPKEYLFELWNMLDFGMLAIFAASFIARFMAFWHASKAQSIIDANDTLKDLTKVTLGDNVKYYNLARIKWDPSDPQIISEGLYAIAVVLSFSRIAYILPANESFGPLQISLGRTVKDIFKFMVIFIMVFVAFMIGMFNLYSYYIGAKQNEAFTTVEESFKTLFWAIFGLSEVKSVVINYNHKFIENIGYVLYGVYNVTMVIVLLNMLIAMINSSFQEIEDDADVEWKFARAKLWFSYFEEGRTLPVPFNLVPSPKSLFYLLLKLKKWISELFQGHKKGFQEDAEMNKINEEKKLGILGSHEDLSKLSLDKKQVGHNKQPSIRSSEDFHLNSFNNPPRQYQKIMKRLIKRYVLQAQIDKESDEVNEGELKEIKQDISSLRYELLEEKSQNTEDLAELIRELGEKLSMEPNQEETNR
Outline: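 The FLIPR signal is maximum fluorescence after 30 μM OAG minus minimum before compound, measured in a human TRPC6 stable line loaded with Calcium 5 dye. Compounds were preincubated 20 min. pIC50 came from four-parameter logistic fitting of inhibition rates and is given as symbol ranges.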

Row | Structure (SMILES) | IC50
1 | Cc1nc(Oc2cc(C#N)ccc2-c2ccc(C(O)CN)cc2)cc(N2CCOCC2)n1 (stereo not drawn) [Compound 9, 4-[4-(2-amino-1-hydroxyethyl)phenyl]-3-(2-methyl-6-morpholin-4-ylpyrimidin-4-yl)oxybenzonitrile] | < 10 nM
2 | CCCCc1cc(Oc2cc(C#N)ccc2-c2ccc(C(O)C(C)(C)N)cn2)n(C)n1 (stereo not drawn) [compound 336, 4-[5-(2-amino-1-hydroxy-2-methylpropyl)pyridin-2-yl]-3-(5-butyl-2-methylpyrazol-3-yl)oxybenzonitrile] | < 10 nM
3 | Cn1nc(-c2ccccn2)cc1Oc1cc(C#N)ccc1-c1ncc(CNC(C)(C)C)cn1 [compound 664, 4-[5-[(tert-butylamino)methyl]pyrimidin-2-yl]-3-(2-methyl-5-pyridin-2-ylpyrazol-3-yl)oxybenzonitrile] | 10 to 1000 nM
4 | Cc1nc(Oc2cc(C#N)ccc2-n2cc([C@H](O)CN)cn2)cc(-c2ccccc2C(F)(F)F)n1 [compound 355, 4-[4-[(1S)-2-amino-1-hydroxyethyl]pyrazol-1-yl]-3-[2-methyl-6-[2-(trifluoromethyl)phenyl]pyrimidin-4-yl]oxybenzonitrile] | > 1000 nM
5 | Cc1cc(Oc2cc(C#N)ccc2-c2ccc([C@H](O)CN)cn2)cc(-c2ncccn2)n1 [compound 692, 4-[5-[(1S)-2-amino-1-hydroxyethyl]pyridin-2-yl]-3-(2-methyl-6-pyrimidin-2-ylpyridin-4-yl)oxybenzonitrile] | > 1000 nM
6 | CCOC(=O)CCNCCc1ccc(-c2ccc(C#N)cc2Oc2cc(N3CCOCC3)nc(C)n2)cc1 [Compound 54, ethyl 3-[2-[4-[4-cyano-2-(2-methyl-6-morpholin-4-ylpyrimidin-4-yl)oxyphenyl]phenyl]ethylamino] propanoate] | > 1000 nM
7 | Cn1nc(-c2cccc(F)c2)cc1Oc1cc(C#N)ccc1-c1ccc([C@H](O)CN)cn1 [compound 403, 4-[5-[(1S)-2-amino-1-hydroxyethyl]pyridin-2-yl]-3-[5-(3-fluorophenyl)-2-methylpyrazol-3-yl]oxybenzonitrile] | < 10 nM
8 | N#Cc1ccc(-c2ncc(CCN)cn2)c(Cn2cnc(-c3ccccc3)c2)c1 [compound 1135, 4-[5-(2-aminoethyl)pyrimidin-2-yl]-3-[(4-phenylimidazol-1-yl)methyl]benzonitrile] | < 10 nM
9 | Cc1nc(Oc2cc(C#N)ccc2-c2ccc(CCN)nc2)cc(-c2ccccn2)n1 [Compound 166, 4-[6-(2-aminoethyl)pyridin-3-yl]-3-(2-methyl-6-pyridin-2-ylpyrimidin-4-yl)oxybenzonitrile] | 10 to 1000 nM
10 | Cc1sc(N2CCOCC2)nc1C(=O)c1cc(C#N)ccc1-c1ncc(CCN)cn1 [compound 1070, 4-[5-(2-aminoethyl)pyrimidin-2-yl]-3-(5-methyl-2-morpholin-4-yl-1,3-thiazole-4-carbonyl)benzonitrile] | > 1000 nM
11 | Cc1nc(Oc2cc(C#N)ccc2-n2cnc(C(O)CN)c2)cc(N2CCOCC2)n1 (stereo not drawn) [Compound 169, 4-[4-(2-amino-1-hydroxyethyl)imidazol-1-yl]-3-(2-methyl-6-morpholin-4-ylpyrimidin-4-yl)oxybenzonitrile] | > 1000 nM
12 | Cc1nc(Sc2cc(C#N)ccc2-c2ncc(CCN)cn2)cc(N2CCCCC2)n1 [compound 1255, 4-[5-(2-aminoethyl)pyrimidin-2-yl]-3-(2-methyl-6-piperidin-1-ylpyrimidin-4-yl)sulfanylbenzonitrile] | < 10 nM
13 | Cn1nc(C2CC2)cc1Oc1cc(C#N)ccc1-c1cc(C(O)CN)ccn1 (stereo not drawn) [compound 519, 4-[4-(2-amino-1-hydroxyethyl)pyridin-2-yl]-3-(5-cyclopropyl-2-methylpyrazol-3-yl)oxybenzonitrile] | 10 to 1000 nM
14 | Cc1nn(C(C)C)cc1C(=O)c1cc(C#N)ccc1-c1ncc(CN)cn1 [compound 1054, 4-[5-(aminomethyl)pyrimidin-2-yl]-3-(3-methyl-1-propan-2-ylpyrazole-4-carbonyl)benzonitrile] | < 10 nM
15 | Cc1nc(Oc2cc(F)ccc2-c2ncc(CN)cn2)cc(N2CCOCC2)n1 [compound 1002, [2-[4-fluoro-2-(2-methyl-6-morpholin-4-ylpyrimidin-4-yl)oxyphenyl]pyrimidin-5-yl]methanamine] | > 1000 nM
16 | Cc1cc(Oc2cc(C#N)ccc2-c2ccc([C@H](O)CN)cn2)cc(-c2ncc(C)s2)n1 [compound 605, 4-[5-[(1S)-2-amino-1-hydroxyethyl]pyridin-2-yl]-3-[2-methyl-6-(5-methyl-1,3-thiazol-2-yl)pyridin-4-yl]oxybenzonitrile] | 10 to 1000 nM
17 | Cc1nc(Oc2cc(C#N)ccc2-c2nc(C)c(C(O)CN)s2)cc(-c2ccccc2)n1 (stereo not drawn) [Compound 71, 4-[5-(2-amino-1-hydroxyethyl)-4-methyl-1,3-thiazol-2-yl]-3-(2-methyl-6-phenylpyrimidin-4-yl)oxybenzonitrile] | 10 to 1000 nM
18 | Cc1nc(Oc2cc(C#N)ccc2-c2ccc(C[C@H](N)C(N)=O)cc2)cc(-c2ccccc2)n1 [Compound 240, (2S)-2-amino-3-[4-[4-cyano-2-(2-methyl-6-phenylpyrimidin-4-yl)oxyphenyl]phenyl]propanamide] | 10 to 1000 nM
19 | Cn1nc(C2CC2)cc1Oc1cc(C#N)ccc1-c1ccc(CCNCC#N)cn1 [Compound 286, 4-[5-[2-(cyanomethylamino)ethyl]pyridin-2-yl]-3-(5-cyclopropyl-2-methylpyrazol-3-yl)oxybenzonitrile] | 10 to 1000 nM
20 | N#Cc1ccc(-c2ncc(CN)cn2)c(C(=O)c2cnn(-c3ccccn3)c2)c1 [compound 1038, 4-[5-(aminomethyl)pyrimidin-2-yl]-3-(1-pyridin-2-ylpyrazole-4-carbonyl)benzonitrile] | 10 to 1000 nM
21 | Cc1nc(OCCCF)cc(Oc2cc(C#N)ccc2-c2ccc(CCN)cc2)n1 [Compound 36, 4-[4-(2-aminoethyl)phenyl]-3-[6-(3-fluoropropoxy)-2-methylpyrimidin-4-yl]oxybenzonitrile] | 10 to 1000 nM
22 | N#Cc1ccc(-c2ncc(CN)cn2)c(Oc2cnnc(N3CCOCC3)c2)c1 [compound 534, 4-[5-(aminomethyl)pyrimidin-2-yl]-3-(6-morpholin-4-ylpyridazin-4-yl)oxybenzonitrile] | 10 to 1000 nM
23 | Cc1cc(Oc2cc(C#N)ccc2-c2ccc([C@H](O)CN)cn2)cc(N2CCOC[C@H]2C)n1 [compound 550, 4-[5-[(1S)-2-amino-1-hydroxyethyl]pyridin-2-yl]-3-[2-methyl-6-[(3R)-3-methylmorpholin-4-yl]pyridin-4-yl]oxybenzonitrile] | < 10 nM
24 | Cn1nc(-c2cncs2)cc1Oc1cc(C#N)ccc1-c1ncc(CN)cn1 [compound 935, 4-[5-(aminomethyl)pyrimidin-2-yl]-3-[2-methyl-5-(1,3-thiazol-5-yl)pyrazol-3-yl]oxybenzonitrile] | < 10 nM
25 | Cc1nc(-c2ccc(C(F)(F)F)cc2)cn1Cc1cc(C#N)ccc1-c1ccc(CCN)cc1 [compound 1125, 4-[4-(2-aminoethyl)phenyl]-3-[[2-methyl-4-[4-(trifluoromethyl)phenyl]imidazol-1-yl]methyl]benzonitrile] | > 1000 nM
26 | Cn1nc(C2CC2)cc1Oc1cc(C#N)ccc1-c1cccn2c(C[C@H](N)C(=O)O)nnc12 (stereo in doubt) [compound 581, 2-amino-3-[8-[4-cyano-2-(5-cyclopropyl-2-methylpyrazol-3-yl)oxyphenyl]-[1,2,4]triazolo[4,3-a]pyridin-3-yl]propanoic acid] | > 1000 nM
27 | Cc1nc(Oc2cc(C#N)ccc2-c2ccc(C(O)CN)c(O)c2)cc(N2CCOCC2)n1 (stereo not drawn) [Compound 152, 4-[4-(2-amino-1-hydroxyethyl)-3-hydroxyphenyl]-3-(2-methyl-6-morpholin-4-ylpyrimidin-4-yl)oxybenzonitrile] | 10 to 1000 nM
28 | Cc1nc(Oc2cc(C#N)ccc2-c2ncc(CCN)cn2)cc(-c2ncc(C)s2)n1 [compound 602, 4-[5-(2-aminoethyl)pyrimidin-2-yl]-3-[2-methyl-6-(5-methyl-1,3-thiazol-2-yl)pyrimidm-4-yl]oxybenzonitrile] | 10 to 1000 nM
29 | Cc1nc(Oc2cc(C#N)ccc2-c2ccc(C(O)CN(C)C)cc2)cc(N2CCOCC2)n1 (stereo not drawn) [Compound 106, 4-[4-[2-(dimethylamino)-1-hydroxyethyl]phenyl]-3-(2-methyl-6-morpholin-4-ylpyrimidin-4-yl)oxybenzonitrile] | > 1000 nM
30 | Cn1nc(N2CCCC2)cc1Oc1cc(C#N)ccc1-c1ncc(CCN)cn1 [compound 628, 4-[5-(2-aminoethyl)pyrimidin-2-yl]-3-(2-methyl-5-pyrrolidin-1-ylpyrazol-3-yl)oxybenzonitrile] | < 10 nM
